pEC50, pIC50: −log10 of the molar value. Values after ≈ are worked out from the molar mass of the structure shown.
Legend:
Trypanosoma cruzi [1] = test: Antitrypanosomal activity against Trypanosoma cruzi X10/7-Silvio; format: functional, organism-based
[2] = Cytotoxicity against CHO cells; format: toxicity, cell-based, Cricetulus griseus; details: chinese hamster
Trypanosoma cruzi [3] = test: Antitrypanosomal activity against Trypanosoma cruzi NINOA; format: functional
Trypanosoma cruzi [4] = test: Antitrypanosomal activity against Trypanosoma cruzi INC-5; format: functional
Trypanosoma cruzi [5] = test: Antitrypanosomal activity against Trypanosoma cruzi epimastigotes assessed as parasite growth inhibition at 50 uM; format: functional; parameters: scale not given: the % may be the effect or the level left
Trypanosoma cruzi [6] = test: Antitrypanosomal activity against Trypanosoma cruzi epimastigotes; format: functional, organism-based
[7] = Cytotoxicity against african green monkey Vero cells; format: toxicity, cell-based; details: chlorocebus sabaeus, read-out: LC50 (the source's name)
[8] = Selectivity index, ratio of EC50 for Trypanosoma cruzi epimastigotes to LC50 for african green monkey Vero cells; format: toxicity; details: Vero cells versus Trypanosoma cruzi epimastigotes, read-out: Selectivity Index
Trypanosoma cruzi [9] = test: Antitrypanosomal activity against Trypanosoma cruzi Y; format: functional, organism-based
[10] = Cytotoxicity against mouse J774.2 cells; format: toxicity, cell-based
Leishmania donovani [11] = test: Antileishmanial activity against Leishmania donovani LCR-L 133 LRC infected in J774.2 cells; format: functional, organism-based
[12] = Selectivity index, ratio of CC50 for […] J774.2 cells to IC50 Leishmania donovani LCR-L 133 LRC; format: toxicity; details: J774.2 cells versus Leishmania donovani LCR-L 133 LRC; read-out: Ratio CC50/IC50
[13] = Cytotoxicity against rat L6 cells; format: toxicity, cell-based
Leishmania donovani [14] = test: Antileishmanial activity against Leishmania donovani axenic amastigotes; format: functional, organism-based
[15] = Selectivity index, ratio of CC50 for rat L6 cells to IC50 for Leishmania donovani; format: toxicity; details: L6 cells versus Leishmania donovani, read-out: Ratio CC50/IC50
Trypanosoma cruzi [16] = test: Antitrypanosomal activity against Trypanosoma cruzi Tulahuen; format: functional, organism-based
Trypanosoma cruzi [17] = test: Antitrypanosomal activity against Trypanosoma cruzi Brener; format: functional, organism-based
Leishmania infantum = test: Antileishmanial activity against Leishmania infantum amastigotes MCAN/ES/2001/UCM-10 infected in J774.2 cells; format: functional, organism-based; details: MCAN/ES/2001/UCM-10, J774.2
[18] = Selectivity index, ratio of CC50 for […] J774.2 cells to IC50 Leishmania infantum MCAN/ES/2001/UCM-10; format: toxicity; details: J774.2 cells versus Leishmania infantum MCAN/ES/2001/UCM-10; read-out: Ratio CC50/IC50
Leishmania braziliensis = test: Antileishmanial activity against Leishmania braziliensis MHOM/BR/1975/M2904 infected in J774.2 cells; format: functional, organism-based; details: MHOM/BR/1975/M2904, J774.2
[19] = Selectivity index, ratio of CC50 for […] J774.2 cells to IC50 Leishmania braziliensis MHOM/BR/1975/M2904; format: toxicity; details: read-out: Ratio CC50/IC50
Trypanosoma cruzi [20] = test: Antitrypanosomal activity against Trypanosoma cruzi LQ; format: functional, organism-based

Compound: O=C(Cn1cccc1[N+](=O)[O-])Nc1ccccc1
- pEC50 (Trypanosoma cruzi [1]): 5.22
- CC50 [2]: 262 µM

Compound: O=C(Cn1cccc1[N+](=O)[O-])Nc1cccc(C(F)(F)F)c1
- pEC50 (Trypanosoma cruzi [1]): 5.44
- CC50 [2]: 156 µM

Compound: O=[N+]([O-])c1ccccc1/C=N/NS(=O)(=O)c1ccccc1
- LC50 (Trypanosoma cruzi [3]): 218 µM
- LC50 (Trypanosoma cruzi [4]): 15.2 µM

Compound: O=[N+]([O-])c1ccc(/C=N/N=c2\[nH]nc(Cl)c3ccccc23)o1
- Activity (Trypanosoma cruzi [5]): 48%
- pEC50 (Trypanosoma cruzi [6]): 5.20
- CC50 [7]: 100 µM
- selectivity ratio [8]: 8.82

Compound: O=[N+]([O-])c1ccc(/C=N/N=c2\[nH]nc(Cl)c3ccccc23)s1
- Activity (Trypanosoma cruzi [5]): 54%
- pEC50 (Trypanosoma cruzi [6]): 5.14
- CC50 [7]: 37 µM
- selectivity ratio [8]: 5.14

Compound: Cn1cnc([N+](=O)[O-])c1-c1nnc(N)[nH]1
- pIC50 (Trypanosoma cruzi [9]): 4.41

Compound: O=[N+]([O-])c1ccc2c(c1)c(Oc1ccccc1)nn2CCBr
- CC50 [10]: 588 µM
- pIC50 (Leishmania donovani [11]): 5.80
- selectivity ratio [12]: 120

Compound: COc1cc(CSc2nnc(-c3ncc([N+](=O)[O-])n3C)s2)cc(OC)c1OC
- CC50 [13]: 19.4 µg/mL (≈ 45.9 µM)
- IC50 (Leishmania donovani [14]): 0.081 µg/mL (≈ 0.191 µM)
- selectivity ratio [15]: 240

Compound: Cn1c([N+](=O)[O-])cnc1-c1nnc(NC(=O)C(F)(F)F)s1
- pIC50 (Trypanosoma cruzi [16]): 4.47
- pIC50 (Trypanosoma cruzi [17]): 4.51

Compound: CNCCOCCn1nc(OCc2ccccc2)c2cc([N+](=O)[O-])ccc21
- pIC50 (Leishmania infantum): 5.04
- CC50 [10]: 197 µM
- selectivity ratio [18]: 21.6

Compound: COc1nn(CCN)c2ccc([N+](=O)[O-])cc12
- pIC50 (Leishmania infantum): 5.46
- pIC50 (Leishmania braziliensis): 5.09
- CC50 [10]: 489 µM
- selectivity ratio [18]: 140
- selectivity ratio [19]: 60

Compound: O=[N+]([O-])c1ccc(/C=N/NS(=O)(=O)c2ccccc2)cc1
- LC50 (Trypanosoma cruzi [3]): 26.3 µM
- LC50 (Trypanosoma cruzi [4]): 4.68 µM

Compound: CC(=O)Nc1nnc(-c2ncc([N+](=O)[O-])n2C)s1
- pIC50 (Trypanosoma cruzi [16]): 5.13
- pIC50 (Trypanosoma cruzi [17]): 5.13
- pIC50 (Trypanosoma cruzi [20]): 5.13

Compound: CCC(=O)N(/N=C/c1ccccc1[N+](=O)[O-])S(=O)(=O)c1ccccc1
- LC50 (Trypanosoma cruzi [3]): 68.1 µM
- LC50 (Trypanosoma cruzi [4]): 0.61 µM

Compound: Cn1nc(OCc2ccccc2)c2cc([N+](=O)[O-])ccc21
- pIC50 (Leishmania infantum): 4.92
- CC50 [10]: 179 µM
- selectivity ratio [18]: 14.8
